The source of these data is patent publication US9861647B2 (Prelief Inc., priority 2007, dated 2018).

Where only a bound is given, the exact number is not on record here.

Data set [1] concerns human subject having asthma. Nature of the data set: Application of CGP composition to a human subject having asthma. Format: in vivo. The text has this:
A CGP composition similar to that described in Example 3, containing about 2% (w/w) CGP, was used in this study. A second human subject, a person having a life history of asthma, participated in this study.
The subject intentionally stopped using Advair Diskus (steroid) for about 2 weeks. Their allergies to molds were triggered by a ‘musty’ indoor environment resulting from several rainy and humid days. The allergies in turn triggered their asthma. The subject had felt a slight reduction in their airflow capacity for a few days, but had withheld use of albuterol inhaler (asthma rescue medication) during the day and only used it for severe wake-ups during the night. The subject had to use albuterol inhaler for three contiguous nights prior to the night described below.
In that night, at about 8:30 PM, the subject was experiencing difficulty breathing and wheezing, which signaled the start of an asthma attack. At about 8:35 PM, the subject applied two sprays of the CGP composition into each nostril and one spray of the CGP composition into their mouth for inhalation. An average spray delivery contained about 200 mg of the composition. […] At about 8:52 PM, the subject did two additional oral inhalations of the composition. At about 8:55 PM, the subject noticed that their wheeze and tightness in chest were relieved about 80% or more. All nasal drips had been sniffed back in. At about 8:58 PM, the subject perceived a gradual improvement and experienced no labor in breathing. At about 9:05 PM, the subject felt better, but desired full relief and wanted to increase breathing capacity. They applied one inhalation of the composition into each nostril; paused to get full breath, then applied two deep oral inhalations of the composition at about 9:07 PM. At about 9:27 PM, the subject felt fine and substantially back to normal. At about 9:37 PM, the subject felt improved. At about 10:16 PM, the subject felt fully (100%) recovered. At about 11:00 PM, the subject felt fine, no worry, and went to bed. […] At about 8:00 AM the next day, the subject felt a little tightness in chest. Instead of using 2 puffs of albuterol to start the day as they normally did, the subject used the CGP composition. They applied two sprays of the composition into each nostril and two sprays of the composition into their mouth for inhalation.

The test system of data set [2] is nosebleeds. As to the kind of experiment: Stanching nosebleeds at higher CGP levels. In kind it is in vivo. The following applies: higher levels tested, about 7.5% (w/w) or above.
Data set [3] in a line: Tolerability in dogs: daily observations, body weights, blood chemistry. In kind it is in vivo, Beagle dogs. The procedure:
(§1) Ragweed sensitized beagle dogs (n=5) with preexisiting nasal and airway allergic responses were utilized in the animal study described in this Example. Dogs served as their own control and initially were treated with vehicle (sterile water) and then rested for 5 weeks prior to receiving the test compound. […] Based on the aerosol testing only 1.6 mg/dog could be delivered by inhalation during a 15 minute exposure (20 mg/ml solution). In addition, each dog received twice daily an intranasal instillation of 30 mg (2×375 μl of 20 mg/ml in each nostril) given within 30 minutes after the end of the inhalation exposures.
Vehicle (sterile water) was given twice daily by inhalation (15 minutes) followed by intranasal instillation of water (2×250 μl in each nostril). […] The test-article and the compound solution were prepared in the morning of each treatment day. Vehicle and test-article were administered by inhalation and intranasal instillation twice a day. Dosing of vehicle or test compound was achieved by utilizing a face mask connected to a jet nebulizer for inhalation delivery followed by intranasal instillation in both nostrils using an Accuspray device.
Blood sample was collected by placing a venous (cephalic or saphenous) catheter in the leg prior to anesthesia or by venipuncture (jugular) using a syringe or needle-vacutainer. […]

Data set [4] deals with inflammatory cells in nasal lavage. Nature of the data set: Nasal lavage cell counts and differentials after nasal ragweed challenge. Format: in vivo, Beagle dogs. As for the experimental part:
as §1
FIG. 1 summarizes the study design for characterizing the effects of CGP on rhinitis symptoms in ragweed sensitized Beagle dogs. The baseline nasal cavity volume was first measured 3 days (day −3) before each of the vehicle and CGP treatments. The dogs were treated with vehicle or CGP (day 0) twice daily with the target dosage described above. […]
Total nasal cells were determined using an automatic cell counter. […] At least four hundred inflammatory cells (or less if applicable) were counted and the percentage of specific cell types determined for each animal (slides in duplicates, 200 cells per slide). […]
Changes in nasal cavity volume or mediator levels were assessed by two way analysis of variance (ANOVA) with Bonferroni post-test. […]

calcium glycerophosphate: in data set [1] (about 8:00 AM next day, two sprays each nostril and two sprays into mouth instead of albuterol), the “relief of tightness in chest next morning” value was “felt relief and no need to use the albuterol inhaler”. Besides, the “relief at start of an asthma attack” value in data set [1] (about 8:40 PM, 5 min after first sprays, composition about 2% (w/w) CGP, one subject) is recorded as “mild relief”. For the same substance, the “wheeze and tightness in chest relieved” value in data set [1] (about 8:55 PM, after nasal sprays and oral inhalations from 8:35 PM, about 2% (w/w) CGP) is given as at least 80%. The subject felt recovered in data set [1] (about 10:16 PM, first application 8:35 PM, about 2% (w/w) CGP) was 100%. Further, the “night wake-up and inhaler use” value in data set [1] (night after the treated attack) was “no wake-up with shortness of breath and did not use inhaler during the night”. The stanching nosebleeds entry in data set [2] is reported as “may help in stanching nosebleeds”. In data set [3] (dog, in vivo), the “daily observations, adverse health effects” value is listed as “No adverse health effects were found”. Moreover, in data set [3] (dogs, BID inhalation + intranasal instillation, Days 0 to 5), the tolerability result was “well tolerated”. The “levels of macrophages in nasal lavage” value in data set [4] (following treatment, not detectable following vehicle) is listed as “negligible levels”. In addition, in data set [4] (pretreatment vs vehicle, Days 1 and 2 after nasal RW challenge), the “number of inflammatory cells in the nasal lavage” value was “did tend to reduce the lung inflammatory cells compared to vehicle treatment, although none of the endpoints reached statistical significance”.
